Legend:
Assay type in all cases: in vivo
Arabidopsis = assay: Growth recovery test with IAA, Arabidopsis; settings: 8 days
Description: Arabidopsis was cultured in a plate vertically set and using ½ MS medium containing 1.5% sucrose, 0.8% agar (0.6% Gelrite in the case of KOK1169), the compound of the present invention and IAA under continuous white light at 22° C. for 8 days. […] In the test, KOK1101 (30 μM), KOK1160 (30 μM), KOK1165 (30 μM), and KOK1169 (100 μM) were studied.

Lettuce = assay: Growth test, Lettuce; settings: 30 μM, 6 days
Description: Lettuce was cultured in a plate vertically set and using ½ MS medium containing 1.5% sucrose, 0.8% agar and KOK1101 (30 μM) under continuous white light at 25° C. for 6 days.

[1] = system: Physcomitrella patens subsp. patens; assay: Growth test, Physcomitrella patens subsp. patens; settings: 100 μM, 7th day after transfer, vs DMSO control
Tomato (Momotaro) = assay: Growth test, Tomato; settings: 100 μM, 6th day after transfer, vs DMSO control
Rice (Nipponbare) = assay: Growth test, Rice; settings: 50 μM, 6th day after transfer, vs DMSO control
Tobacco = assay: Growth test, Tobacco; settings: compound 100 μM, 7 days after transfer
Description: Tobacco was cultured in a plate vertically set and using ½ MS medium containing 1.5% sucrose and 0.8% agar under continuous white light at 25° C. for 7 days. Thereafter, tobacco was transferred to a plate vertically set and using ½ MS medium containing 1.5% sucrose, 0.8% agar and the compound of the present invention (100 μM) and cultured under continuous white light at 25° C. for 7 days.

[2] = compound 100 μM + IAA 10 nM, 0.6% Gelrite

NO[C@@H](Cc1ccc2ccccc2c1)C(=O)O [KOK 1169]
growth of an aerial part, recovery by simultaneous application with IAA (Arabidopsis; [2]): recovered | main root elongation, recovery by simultaneous application with IAA (Arabidopsis; [2]): recovered

COC(=O)[C@H](Cc1cccc2ccccc12)ON1C(=O)c2ccccc2C1=O [KOK 1160]
growth of an aerial part, recovery by simultaneous application with IAA (Arabidopsis; compound 30 μM + IAA 10 nM): recovered | main root elongation, recovery by simultaneous application with IAA (Arabidopsis; compound 30 μM + IAA 10 nM): recovered

COC(=O)[C@H](Cc1ccc2ccccc2c1)ON1C(=O)c2ccccc2C1=O [KOK 1165]
growth of an aerial part, recovery by simultaneous application with IAA (Arabidopsis; compound 30 μM + IAA 10 nM): recovered | main root elongation, recovery by simultaneous application with IAA (Arabidopsis; compound 30 μM + IAA 10 nM): recovered

COC(=O)[C@H](Cc1ccccc1)ON1C(=O)c2ccccc2C1=O [KOK 1101]
growth of the aerial part (Lettuce): Apparent growth inhibition | main root elongation (underground part) (Lettuce): promotion | root hair formation (underground part) (Lettuce): inhibition | main root elongation, recovery by simultaneous application with IAA (Arabidopsis; compound 30 μM + IAA 10 nM): recovered | growth of an aerial part, recovery by simultaneous application with IAA (Arabidopsis; compound 30 μM + IAA 100 nM): recovered

COC(=O)[C@H](Cc1ccc2ccccc2c1)ON [KOK 1168]
differentiation into forage [1]: inhibited | growth of protonemata [1]: remarkably inhibited | growth of seedling (Tomato (Momotaro)): remarkably inhibited | growth of seedling (Rice (Nipponbare)): remarkably inhibited

NOC(Cc1cccc(Cl)c1)C(=O)O (centres unmarked) [KOK 1187]
Note (morphology) (Tobacco): Auxin-excess like morphology

NO[C@@H](Cc1cccc2ccccc12)C(=O)O [KOK 1167]
Note (morphology) (Tobacco): Auxin-excess like morphology
